Values quoted from earlier work, collected in patent US4665086A, “Method for minimizing disturbances in circadian rhythms of bodily performance and function” (priority 1983, dated 1987).

What was measured:
[1] = tested on: endogenous melatonin secretion; details: beta blocker; cited from earlier work
[2] = tested on: melatonin synthesis; details: rats, exogenous administration; cited from earlier work
[3] = tested on: laboratory animals; details: chronic administration, cited from earlier work; for effect on rhythm (splitting): monoamine oxidase inhibitors

Row | SMILES | effect on rhythm (splitting) [3] | effect on unentrained, free-running period [3] | other results
1 | CC(C)NC[C@H](O)COc1cccc2ccccc12 (racemic) [PROPANOLOL] |  |  | effect on endogenous melatonin secretion [1]: can inhibit endogenous melatonin secretion
2 | N[C@@H](Cc1ccc(O)c(O)c1)C(=O)O [L-dopa] |  |  | effect on melatonin synthesis [2]: stimulates melatonin synthesis
3 | C#CCN(C)CCCOc1ccc(Cl)cc1Cl [clorgyline] | split the rhythm | lengthens the unentrained, free-running period | 
4 | [2H]O[2H] [heavy water (D2 O)] |  | lengthens the unentrained, free-running period | 
5 | CN(C)CCCN1c2ccccc2CCc2ccccc21 [imipramine] | split the rhythm | lengthens the unentrained, free-running period | 
6 | [Li] [lithium] |  | lengthens the unentrained, free-running period | 
